In publication PMC8400311, “Novel Anti-Melanogenic Compounds, (Z)-5-(Substituted Benzylidene)-4-thioxothiazolidin-2-one Derivatives: In Vitro and In Silico Insights” (Molecules, 2021):
“And” between values parts separate entries of the source, which are not always exact repeats. Identical values can stand only once.

Assays:
mushroom tyrosinase [1] = assay: Mushroom tyrosinase inhibition assay; assay type: biochemical; conditions: for IC50: L-tyrosine as substrate, mean of 3 experiments, read-out: IC50 against mushroom tyrosinase; for fold lower tyrosinase inhibitory activity than 2b: ratio of IC50 values vs 2b
Method: The absorbances of dopachrome produced in each well during incubation was measured at 450 nm using a microplate reader (VersaMax™, Molecular Devices, Sunnyvale, CA, USA). […] All experiments were independently conducted 3 times. To calculate the % inhibition of tyrosinase activity, the following formula was used: % inhibition = […], where A means the optical density of the test samples and B means the optical density of the non-treated control. To calculate the concentration necessary for 50% inhibition of enzyme activity (IC50), the % tyrosinase inhibition of each compound was obtained at 3 or more different concentrations. IC50 values were calculated by constructing a linear regression curve showing the concentration of the (Z)-BTTZ compounds on the x-axis and percentage inhibition on the y-axis. To obtain a negative control dimethyl sulfoxide (DMSO) was added instead of the (Z)-BTTZ compounds.

mushroom tyrosinase [2] = assay: Kinetic study of mushroom tyrosinase inhibition (Lineweaver–Burk plots); assay type: biochemical; conditions: L-tyrosine 0.5–8.0 mM
Method: To investigate the modes of action of compounds 2b and 2f, a kinetic study was performed using mushroom tyrosinase and different concentrations of L-tyrosine as a substrate in the presence of 2b or 2f. As depicted in Figure 4, inhibitory mechanisms were determined using Lineweaver–Burk plot analysis. The Lineweaver–Burk plot patterns of 2b and 2f were similar. The plots obtained at different concentrations of 2b and 2f merged at single points on the y-axis. Regardless of the concentration, the Vmax values of 2b and 2f were independent of concentration, whereas their KM values increased concentration-dependently.
Compounds 2b or 2f (10 µL, final concentrations: 0, 0.05, 0.1, or 0.2 µM for 2b and 0, 2, 4, or 8 µM for 2f) and mushroom tyrosinase solution (20 µL, 150 units) were added to the wells of a 96-well plate containing aqueous solutions (170 µL) containing L-tyrosine at 0.5, 1.0, 2.0, 4.0, or 8.0 mM (final concentrations), distilled water, and potassium phosphate buffer (final concentration: 14.7 mM, pH 6.5), in the ratio 10:9:10. Initial rates of dopachrome formation in reaction mixtures were calculated by measuring increases in absorbances at 492 nm (ΔOD492/min) using a microplate reader (VersaMax^TM, Molecular Devices, Sunnyvale, CA, USA). […] Modes of tyrosinase inhibition were determined using points of convergence. […]

B16F10 melanoma cells [3] = assay: Cell viability, EZ-Cytox assay; assay type: cell-based, murine; conditions: concentrations ≤25 µM; 24 and 48 h for 2b and 2f, respectively
Method: Before examining the inhibitory effects of compounds 2b and 2f on tyrosinase and melanin biosynthesis, we investigated their cytotoxic effects using murine B16F10 melanoma cells. The cells were treated with different concentrations of 2b or 2f (0, 1, 2.5, 5, 10, or 25 µM) for 24 and 48 h (Figure 7), respectively, and the cell viabilities were assessed using the EZ-Cytox assay.
Cell viability assays of compounds 2b and 2f were performed using B16F10 melanoma cells and the EZ-Cytox assay (EZ-3000, DoGenBio, Seoul, Korea), as previously described. Briefly, cells were seeded at a density of 1 × 10^4 cells/well in a 96-well plate for 24 h, and then were exposed to different concentrations (0, 1, 2.5, 5, 10, or 25 µM) of 2b or 2f and incubated at 37 °C for 24 and 48 h, respectively. EZ-Cytox solution (10 µL) was then added to each well and cells were incubated at 37 °C for 2 h. Absorbances were measured at 450 nm using a microplate reader (VersaMax^TM, Molecular Devices, Sunnyvale, CA, USA). Each assay was performed in triplicate.
Figure 7 The cytotoxic effects of compounds 2b (a) and 2f (b) on B16F10 melanoma cells at concentrations of 1, 2.5, 5, 10, or 25 µM. Cell viabilities were determined using the EZ-Cytox assay and are expressed as percentages versus non-treated controls. Bars present standard errors.

B16F10 melanoma cells [4] = assay: Melanin content assay in α-MSH-stimulated cells; assay type: cell-based, murine; conditions: for reduction in melanin content: 48 h; for melanin level versus non-treated controls: 48 h (α-MSH alone 1.61-fold)
Method: Melanin content assays were used to evaluate the inhibitory effects of compounds 2b and 2f on α-MSH-stimulated melanogenesis. […] The inhibitory activities on α-MSH-stimulated melanogenesis were determined by measuring melanin optical densities. The anti-melanogenesis activities of compounds 2b and 2f were assessed using a standard melanin content assay with minor modifications. Briefly, B16F10 cells were seeded at a density of 5 × 10^4/well in a 24-well plate and allowed to adhere to wells in a DMEM solution containing penicillin/streptomycin (100 IU/100 µg/mL) and 10% heat-inactivated FBS in a standard humidified 5% CO2 atmosphere at 37 °C. […] Cells were then rinsed twice with PBS and lysed in 200 µL of 1N NaOH containing 10% dimethyl sulfoxide (DMSO) for 1 h at 60 °C. Lysates were transferred to the wells of a 96-well plate, and melanin absorbances were measured at 405 nm using a microplate reader (VersaMax^TM, Molecular Devices, Sunnyvale, CA, USA). All experiments were conducted three times in triplicate. […] Bars represent standard errors.

[5] = system: cellular tyrosinase in B16F10 melanoma cells; assay: Cellular tyrosinase activity assay (L-DOPA oxidation) in α-MSH-stimulated cells; assay type: cell-based, murine; conditions: for reduction in cellular tyrosinase activity: 48 h; for cellular tyrosinase activity versus non-treated cells: 48 h (α-MSH alone 2.19-fold)
Method: The inhibitory activities of compounds 2b and 2f against cellular tyrosinase were assessed using α-MSH-stimulated melanoma cells. […] The inhibitory effects on tyrosinase activity were evaluated by measuring optical densities.
Tyrosinase activities were assessed by determining the L-DOPA oxidation rate, as described previously with minor modifications. […] Cells were then rinsed twice with PBS, exposed to 100 µL of lysis buffer (90 µL of 50 mM phosphate buffer pH 6.8; 5 µL of 2 mM PMSF; 5 µL of 20% Triton), and frozen at −80 °C for 30 min. After defrosting, lysates were centrifuged at 12,000 g for 30 min at 4 °C, and supernatants (80 µL) were mixed with 10 mM L-DOPA (20 µL) in a 96-well plate. Absorbances were measured at 490 nm at 37 °C every 10 min for 1 h using a microplate reader (VersaMax^TM, Molecular Devices, Sunnyvale, CA, USA). All experiments were carried out three times in triplicate.
Bars represent standard errors.

O=C1NC(=S)/C(=C/c2ccc(O)cc2)S1 [Compound 2a, (Z)-5-(4-Hydroxybenzylidene)-4-thioxothiazolidin-2-one]
IC50 (mushroom tyrosinase [1]): 28.1 ± 1.16 µM
fold lower tyrosinase inhibitory activity than 2b (mushroom tyrosinase [1]): 60 fold

O=C1NC(=S)/C(=C/c2ccc(O)cc2O)S1 [Compound 2b, (Z)-5-(2,4-Dihydroxybenzylidene)-4-thioxothiazolidin-2-one]
mode of mushroom tyrosinase inhibition (mushroom tyrosinase [2]): competitive
cytotoxic effect on B16F10 cells (B16F10 melanoma cells [3]): Neither 2b nor 2f exhibited any significant cytotoxic effect
reduction in melanin content (B16F10 melanoma cells [4]; 5 µM compound, α-MSH 0.5 µM): 26%
melanin level versus non-treated controls (B16F10 melanoma cells [4]; 5 µM compound, α-MSH 0.5 µM): 1.19 fold
reduction in melanin content (B16F10 melanoma cells [4]; 10 µM compound, α-MSH 0.5 µM): 44%
melanin level versus non-treated controls (B16F10 melanoma cells [4]; 10 µM compound, α-MSH 0.5 µM): 0.91 fold
reduction in melanin content (B16F10 melanoma cells [4]; 25 µM compound, α-MSH 0.5 µM): 47%
melanin level versus non-treated controls (B16F10 melanoma cells [4]; 25 µM compound, α-MSH 0.5 µM): 0.85 fold
fold higher inhibitory potency than kojic acid (mushroom tyrosinase) (mushroom tyrosinase [1]; ratio of IC50 values vs kojic acid): 141 fold and > 100 fold
reduction in cellular tyrosinase activity ([5]; 5 µM compound, α-MSH 0.5 µM): 16%
cellular tyrosinase activity versus non-treated cells ([5]; 5 µM compound, α-MSH 0.5 µM): 1.85 fold
reduction in cellular tyrosinase activity ([5]; 10 µM compound, α-MSH 0.5 µM): 32%
cellular tyrosinase activity versus non-treated cells ([5]; 10 µM compound, α-MSH 0.5 µM): 1.48 fold
reduction in cellular tyrosinase activity ([5]; 25 µM compound, α-MSH 0.5 µM): 45%
cellular tyrosinase activity versus non-treated cells ([5]; 25 µM compound, α-MSH 0.5 µM): 1.20 fold

O=C1NC(=S)/C(=C/c2ccc(O)c(O)c2)S1 [Compound 2c, (Z)-5-(3,4-Dihydroxybenzylidene)-4-thioxothiazolidin-2-one]
IC50 (mushroom tyrosinase [1]): 47.4 ± 2.18 µM

COc1cc(/C=C2\SC(=O)NC2=S)ccc1O [Compound 2d, (Z)-5-(4-Hydroxy-3-methoxybenzylidene)-4-thioxothiazolidin-2-one]
IC50 (mushroom tyrosinase [1]): 70.8 ± 1 µM
fold lower mushroom tyrosinase inhibitory activity than compound 2f (mushroom tyrosinase [1]; ratio of IC50 values vs 2f): 4.6 fold

CCOc1cc(/C=C2\SC(=O)NC2=S)ccc1O [Compound 2e, (Z)-5-(3-Ethoxy-4-hydroxybenzylidene)-4-thioxothiazolidin-2-one]
IC50 (mushroom tyrosinase [1]): 92.81 ± 0.89 µM

COc1cc(/C=C2\SC(=O)NC2=S)cc(OC)c1O [Compound 2g, (Z)-5-(4-Hydroxy-3,5-dimethoxybenzylidene)-4-thioxothiazolidin-2-one]
IC50 (mushroom tyrosinase [1]): 82.4 ± 1.26 µM

O=C1NC(=S)/C(=C/c2ccccc2O)S1 [Compound 2h, (Z)-5-(2-Hydroxybenzylidene)-4-thioxothiazolidin-2-one]
IC50 (mushroom tyrosinase [1]): 147.6 ± 0.96 µM
fold lower tyrosinase inhibitory activity than 2b (mushroom tyrosinase [1]): 314 fold

O=C1NC(=S)/C(=C/c2ccc(O)c(Br)c2)S1 [Compound 2i, (Z)-5-(3-Bromo-4-hydroxybenzylidene)-4-thioxothiazolidin-2-one]
IC50 (mushroom tyrosinase [1]): 26.3 ± 4.1 µM

COc1ccc(/C=C2\SC(=O)NC2=S)cc1 [Compound 2j, (Z)-5-(4-Methoxybenzylidene)-4-thioxothiazolidin-2-one]
IC50 (mushroom tyrosinase [1]): 30.8 ± 1.41 µM

COc1ccc(/C=C2\SC(=O)NC2=S)c(OC)c1 [Compound 2k, (Z)-5-(2,4-Dimethoxybenzylidene)-4-thioxothiazolidin-2-one]
IC50 (mushroom tyrosinase [1]): 126.4 ± 0.46 µM

COc1ccc(/C=C2\SC(=O)NC2=S)cc1OC [Compound 2l, (Z)-5-(3,4-Dimethoxybenzylidene)-4-thioxothiazolidin-2-one]
IC50 (mushroom tyrosinase [1]): 23.3 ± 0.28 µM

O=c1cc(CO)occ1O [Kojic acid, reference compound]
reduction in melanin content (B16F10 melanoma cells [4]; 25 µM compound, α-MSH 0.5 µM): 14%
melanin level versus non-treated controls (B16F10 melanoma cells [4]; 25 µM compound, α-MSH 0.5 µM): 1.38 fold
reduction in melanin content (B16F10 melanoma cells [4]; 25 µM compound, α-MSH 1.0 µM): 45%
reduction in cellular tyrosinase activity ([5]; 25 µM compound, α-MSH 0.5 µM): 14%
reduction in cellular tyrosinase activity ([5]; 25 µM compound, α-MSH 1.0 µM): 33%
